Where a name gives a salt, the structure may show the parent alone. Read-outs that look alike come from different tables or passages of the source.
Biological target: human cloned 5-HT6 receptors (Homo sapiens, UniProt P50406)
Experiment: biochemical
Assay type: binding
Design: selectivity: reference not given here
[1] = [3H]-LSD, HeLa-5HT6 cell membranes, pH 7.7, 37° C., read-out: pKi (converted)
[2] = selective 5-HT6 receptor antagonist activity

human cloned 5-HT6 receptors, sequence (P50406 whole entry): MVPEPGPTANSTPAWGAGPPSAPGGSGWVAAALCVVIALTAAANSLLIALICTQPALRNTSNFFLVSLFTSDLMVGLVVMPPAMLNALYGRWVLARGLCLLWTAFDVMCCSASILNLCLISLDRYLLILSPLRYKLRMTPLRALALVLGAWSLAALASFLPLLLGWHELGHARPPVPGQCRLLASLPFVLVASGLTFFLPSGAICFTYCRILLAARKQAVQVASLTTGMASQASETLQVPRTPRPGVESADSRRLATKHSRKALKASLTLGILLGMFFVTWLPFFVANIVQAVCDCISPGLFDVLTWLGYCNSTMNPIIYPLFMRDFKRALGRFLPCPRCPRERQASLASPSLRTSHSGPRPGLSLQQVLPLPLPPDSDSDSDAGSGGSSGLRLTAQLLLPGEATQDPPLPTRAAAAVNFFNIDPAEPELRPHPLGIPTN

Structure (SMILES)	Ki [1] [nM]	selectivity [2]	Ki [nM]	selectivity	Ki (read-out: pKi (converted)) [nM]
COc1ccc(S(=O)(=O)Nc2cccc(Br)c2)cc1N1CCN(C)CC1.Cl [Compound 3, N-(3-Bromophenyl)-4-methoxy-3-(4-methylpiperazin-1-yl)benzene sulfonamide hydrochloride]	< 3.16	> 100	–	–	–
COc1ccc(S(=O)(=O)N2CCCc3ccc(C(F)(F)F)cc32)cc1N1CCN(C)CC1 [Compound 8, 1-[4-Methoxy-3-(4-methylpiperazin-1-yl)-benzenesulfonyl]-7-trifluoromethyl-1,2,3,4-tetrahydroquinoline]	< 3.16	> 100	–	–	–
COc1ccc(S(=O)(=O)N2CCc3c(OC)ccc(OC)c3C2)cc1N1CCN(C)CC1.Cl [Compound 21, 5,8-Dimethoxy-2-[4-methoxy-3-(4-methylpiperazin-1-yl)-benzenesulfonyl]-1,2,3,4-tetrahydroisoquinoline hydrochloride]	< 3.16	> 100	–	–	–
COc1ccc(S(=O)(=O)N2CCCc3ccc(C(F)(F)F)cc32)cc1N1CCNCC1 [Compound 29, 1-(4-Methoxy-3-piperizin-1-ylbenzenesulfonyl)-7-trifluoromethyl-1,2,3,4-tetrahydroquinoline hydrochloride]	< 3.16	> 100	–	–	–
COc1ccc(S(=O)(=O)Nc2ccccc2OC(F)(F)F)cc1N1CCN(C)CC1.Cl [Compound 32, N-(2-Trifluoromethoxyphenyl)-4-methoxy-3-(4-methylpiperazin-1-yl)-benzenesulfonamide hydrochloride]	< 3.16	> 100	–	–	–
COc1ccc(S(=O)(=O)Nc2ccc(C)c(C)c2)cc1N1CCN(C)CC1.Cl [Compound 41, N-(3,4-Dimethylphenyl)-4-methoxy-3-(4-methylpiperazin-1-yl)-benzenesulfonamide hydrochloride]	< 3.16	> 100	–	–	–
COc1ccc(S(=O)(=O)N2CCc3cccc(Cl)c3C2)cc1N1CCN(C)CC1.Cl [Compound 44, 8-Chloro-2-[4-methoxy-3-(4-methylpiperazin-1-yl)benzenesulfonyl]-1,2,3,4-tetrahydroisoquinoline hydrochloride]	< 3.16	> 100	–	–	–
COc1ccc(S(=O)(=O)Nc2ccc(F)cc2Cl)cc1N1CCN(C)CC1.Cl [Compound 45, N-(2-Chloro-4-fluorophenyl)-4-methoxy-3-(4-methylpiperazin-1-yl)-benzenesulfonamide hydrochloride]	< 3.16	> 100	–	–	–
COc1ccc(S(=O)(=O)Nc2ccccc2I)cc1N1CCN(C)CC1.Cl [Compound 53, N-(2-Iodophenyl)-4-methoxy-3-(4-methylpiperazin-1-yl)benzenesulfonamide hydrochloride]	< 3.16	> 100	–	–	–
COc1ccc(S(=O)(=O)Nc2ccc(I)cc2Cl)cc1N1CCN(C)CC1.Cl [Compound 54, N-(2-Chloro-4-iodophenyl)-4-methoxy-3-(4-methylpiperazin-1-yl)-benzenesulfonamide hydrochloride]	< 3.16	> 100	–	–	–
C=Cc1ccc(NS(=O)(=O)c2ccc(OC)c(N3CCN(C)CC3)c2)cc1.Cl [Compound 63, 4-Methoxy-3-(4-methylpiperazin-1-yl)-N-(4-vinylphenyl)benzenesulfonamide hydrochloride]	< 3.16	> 100	–	–	–
COc1ccc(S(=O)(=O)Nc2ccc(Br)c(C(F)(F)F)c2)cc1N1CCN(C)CC1.Cl [Compound 67, N-(4-Bromo-3-trifluoromethylphenyl)-4-methoxy-3-(4-methylpiperazin-1-yl)-benzenesulfonamide hydrochloride]	< 3.16	> 100	–	–	–
COc1ccc(S(=O)(=O)Nc2ccc(Cl)c(C(F)(F)F)c2)cc1N1CCN(C)CC1.Cl [Compound 69, N-(4-Chloro-3-trifluoromethylphenyl)-4-methoxy-3-(4-methylpiperazin-1-yl)-benzenesulfonamide hydrochloride]	< 3.16	> 100	–	–	–
COc1ccc(S(=O)(=O)N2CCCc3c(Cl)cc(Cl)cc32)cc1N1CCN(C)CC1.Cl [Compound 73, 5,7-Dichloro-1-[4-methoxy-3-(4-methylpiperazin-1-yl)benzenesulfonyl]-1,2,3,4-tetrahydroquinoline hydrochloride]	< 3.16	> 100	–	–	–
COc1ccc(S(=O)(=O)Nc2ccccc2C(C)C)cc1N1CCNCC1.Cl [Compound 79, N-(2-Isopropylphenyl)-4-methoxy-3-piperazin-1-yl-benzenesulfonamide hydrochloride]	–	–	< 3.16	> 100	–
COc1ccc(S(=O)(=O)Nc2ccccc2SC)cc1N1CCNCC1.Cl [Compound 85, 4-Methoxy-N-(2-methylsulfanylphenyl)-3-piperazin-1-ylbenzenesulfonamide hydrochloride]	< 3.16	> 100	–	–	–
CCc1ccccc1NS(=O)(=O)c1ccc(OC)c(N2CCNCC2)c1.Cl [Compound 88, N-(2-Ethylphenyl)-4-methoxy-3-piperazin-1-ylbenzenesulfonamide hydrochloride]	< 3.16	> 100	–	–	–
COc1ccc(S(=O)(=O)Nc2cccc(C(F)(F)F)c2)cc1N1CCNCC1.Cl [Compound 89, 4-Methoxy-3-piperazin-1-yl-N-(3-trifluoromethylphenyl)benzenesulfonamide hydrochloride]	< 3.16	> 100	–	–	–
COc1ccc(S(=O)(=O)Nc2ccccc2Br)cc1N1CCNCC1.Cl [Compound 91, N-(2-Bromophenyl)-4-methoxy-3-piperazin-1-ylbenzenesulfonamide hydrochloride]	–	–	< 3.16	> 100	–
COc1ccc(S(=O)(=O)Nc2cc(Br)ccc2Br)cc1N1CCNCC1.Cl [Compound 100, N-(2,5-Dibromophenyl)-4-methoxy-3-piperazin-1-ylbenzenesulfonamide hydrochloride]	< 3.16	> 100	–	–	–
C=C(C)c1ccccc1NS(=O)(=O)c1ccc(OC)c(N2CCNCC2)c1.Cl [Compound 104, N-(2-Isopropenylphenyl)-4-methoxy-3-piperazin-1-ylbenzenesulfonamide hydrochloride]	< 3.16	> 100	–	–	–
COc1ccc(S(=O)(=O)Nc2ccc(C(C)(C)C)cc2)cc1N1CCNCC1.Cl [Compound 107, N-(4-tert-Butylphenyl)-4-methoxy-3-piperazin-1-ylbenzenesulfonamide hydrochloride]	< 3.16	> 100	–	–	–
COc1ccc(S(=O)(=O)Nc2ccccc2-c2ccccc2)cc1N1CCNCC1.Cl [Compound 113, N-Biphenyl-2-yl-4-methoxy-3-piperazin-1-ylbenzenesulfonamide hydrochloride]	< 3.16	> 100	–	–	–
COc1ccc(S(=O)(=O)Nc2cc(Cl)c(Cl)cc2Cl)cc1N1CCNCC1.Cl [Compound 131, N-(2,4,5-Trichlorophenyl)-4-methoxy-3-piperazin-1-ylbenzenesulfonamide hydrochloride]	< 3.16	> 100	–	–	–
COc1ccc(Cl)cc1NS(=O)(=O)c1ccc(OC)c(N2CCNCC2)c1.Cl [Compound 132, N-(5-Chloro-2-methoxyphenyl)-4-methoxy-3-piperazin-1-ylbenzenesulfonamide hydrochloride]	< 3.16	> 100	–	–	–
COc1ccc(S(=O)(=O)N2CCCc3ccc(Br)cc32)cc1N1CCNCC1.Cl [Compound 145, 7-Bromo-1-(4-methoxy-3-piperazin-1-ylbenzenesulfonyl)-1,2,3,4-tetrahydroquinoline hydrochloride]	–	–	–	> 100	< 3.16

— US6316450A, “Compounds” (SmithKline Beecham p.l.c., priority 1997, dated 2001)
